Measurements as given in article PMC9511441, “Semisynthetic teicoplanin derivatives with dual antimicrobial activity against SARS-CoV-2 and multiresistant bacteria” (Scientific Reports, 2022).
“Also recorded” adds a separate entry of the source. Where two headings read alike, the source gives them in different places.

Tests used:
SARS-CoV-2 [1] = experiment: microbe, parasite or virus in culture; format: cell-based; settings: for EC50: Vero E6 cells, three days, XTT, read-out: EC50, CPE reduction, SARS-CoV-2 in Vero E6 cells
VeroE6 cells = experiment: Cytotoxicity in mock-infected VeroE6 cells (XTT); format: cell-based, African green monkey
SARS-CoV-2 [2] = experiment: microbe, parasite or virus in culture; format: cell-based; settings: for EC50: Calu-3 cells, three days, XTT, read-out: EC50, CPE reduction, SARS-CoV-2 in Calu-3 cells
HCoV-229E = experiment: CPE reduction assay, HCoV-229E in HEL cells; format: cell-based; settings: for EC50: MTS, mean of 2–3 tests
HEL cells = experiment: Cytotoxicity in mock-infected HEL cells (MTS); format: cell-based, human; settings: mock-infected HEL cells, MTS, mean of 2–3 tests
SARS-CoV-2 pseudovirus [3] = experiment: microbe, parasite or virus in culture; format: cell-based; settings: for EC50: Vero cells, luciferase signal, mean ± SEM of 3 tests, read-out: EC50, inhibition of SARS-CoV-2 pseudovirus entry in Vero cells; for Inhibition of pseudovirus entry in Vero cells (in words): cathepsin-dependent endosomal pathway
SARS-CoV-2 pseudovirus [4] = experiment: microbe, parasite or virus in culture; format: cell-based; settings: for EC50: A549-AT cells (ACE2 and TMPRSS2), luciferase signal, mean ± SEM of 3 tests, read-out: EC50, inhibition of SARS-CoV-2 pseudovirus entry in A549-AT cells; for Inhibition of pseudovirus entry in A549-AT cells (in words): TMPRSS2-mediated uptake
[5] = biological target: T1, human recombinant cathepsin L (Homo sapiens, UniProt P07711); experiment: biochemical; format: biochemical
T1 construct: made in house; host or cells: Escherichia coli
Description: Cathepsin L inhibition was assessed as reported. Briefly, human recombinant cathepsin L was expressed in Escherichia coli[33]. Enzymatic activity was determined in 100 mM acetate buffer (pH 5.5) containing 0.1% PEG 8000, 5 mM cysteine and 1.5 mM EDTA. The enzyme was first activated in assay buffer for 5 min at 37 °C, after which it was added to the wells of a black microplate containing the Z-Phe-Arg-AMC substrate (Bachem) and compounds. Formation of the fluorescent cleavage product was monitored for 50 min at 37 °C, using a Tecan Infinit M1000 spectrofluorimeter set at 460 nm emission and 380 nm excitation wavelength. All assay mixtures contained 5% (v/v) DMSO and 0.01% Triton X-100 to prevent false-positive inhibition due to formation of compound aggregates. All measurements were performed in triplicate and repeated twice. The relative inhibition was calculated using the equation: Relative inhibition (%) = 100(1 − vi/vo), where vi and vo designate the reaction velocities in the presence and absence of inhibitor, respectively. IC50 values were determined from nine data points at different inhibitor concentrations.

SARS-CoV-2 3CL^Pro = SARS-CoV-2 3CL^Pro (Severe acute respiratory syndrome coronavirus 2, UniProt P0DTD1); experiment: biochemical; format: biochemical
E. faecalis = experiment: MIC, broth microdilution; format: cell-based
S. aureus = experiment: MIC, broth microdilution; format: cell-based
S. haemolyticus = experiment: MIC, broth microdilution; format: cell-based
S.pyogenes = experiment: MIC, broth microdilution; format: cell-based
E. faecium = experiment: microbe, parasite or virus in culture; format: cell-based
S. epidermidis = experiment: microbe, parasite or virus in culture; format: cell-based
[6] = tested on: Klebsiella pneumoniae ST258 clone K 160/09; experiment: MIC against Gram-negative strain; settings: Klebsiella pneumoniae ST258 clone K 160/09
[7] = tested on: Pseudomonas aeruginosa ATCC 27853; experiment: MIC against Gram-negative strain; settings: ATCC27853
[8] = tested on: Acinetobacter baumannii ATCC BAA1605; experiment: MIC against Gram-negative strain; settings: Acinetobacter baumannii ATCC BAA1605
[9] = tested on: Escherichia coli ATCC 25218; experiment: MIC against Gram-negative strain; settings: ATCC25218
Calu-3 cells = experiment: Cytotoxicity in mock-infected Calu-3 cells (XTT); settings: read-out: CC50, Calu-3 cells, three days
[10] = Cytotoxicity in mock-infected VeroE6 cells (XTT); format: cell-based, African green monkey; settings: African green monkey; mock-infected Vero E6 cells, three days, XTT
[11] = Cytotoxicity in mock-infected HEL cells (MTS); format: cell-based, human; settings: human; mock-infected HEL cells, MTS, mean of 2–3 tests
in vitro = settings: human
[12] = Severe acute respiratory syndrome-related coronavirus

T1 sequence (P07711 114-333): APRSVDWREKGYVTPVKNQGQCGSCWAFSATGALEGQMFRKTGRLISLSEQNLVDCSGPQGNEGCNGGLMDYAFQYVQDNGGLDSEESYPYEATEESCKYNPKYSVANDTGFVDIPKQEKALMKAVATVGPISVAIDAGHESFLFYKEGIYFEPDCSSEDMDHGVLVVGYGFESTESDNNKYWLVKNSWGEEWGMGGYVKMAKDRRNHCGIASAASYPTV

Molecule: teicoplanin [reference compound]
- EC50 (SARS-CoV-2 [1]): 16 ± 1.7 µM
- CC50 (VeroE6 cells; mock-infected Vero E6 cells, three days, XTT): > 100 µM
- Activity against SARS-CoV-2 in Calu-3 cells (in words) (SARS-CoV-2 [2]): inactive; also recorded: does not inhibit
- EC50 (SARS-CoV-2 [2]): > 100 µM
- Activity against HCoV-229E CPE (in words) (HCoV-229E): inactive
- EC50 (HCoV-229E): > 100 µM
- CC50 (HEL cells): > 100 µM
- EC50 (SARS-CoV-2 pseudovirus [3]): 21 ± 5 µM
- Inhibition of pseudovirus entry in Vero cells (in words) (SARS-CoV-2 pseudovirus [3]): moderately active
- EC50 (SARS-CoV-2 pseudovirus [4]): > 125 µM
- Inhibition of pseudovirus entry in A549-AT cells (in words) (SARS-CoV-2 pseudovirus [4]): inactive
- Cathepsin L inhibition (in words) [5]: inactive
- Cathepsin L inhibition at 50 µM ([5]; at 50 µM): 5% at 50 µM
- 3CL^Pro % inhibition at 200 µM (SARS-CoV-2 3CL^Pro; at 200 µM): 13 ± 8%
- Average MIC value (E. faecalis; E. faecalis VAN^R,TEI^R/VanA, 1 strain): > 64 mg/L
- Average MIC value (E. faecalis; E. faecalis VAN^S, TEI^S, 2 strains): 0.25 mg/L
- MIC value (E. faecalis; E.faecalis JH2-2): 0,25 µg/ml
- MIC value (E. faecalis; E.faecalis OG1RF): 0,25 µg/ml
- MIC value (E. faecalis; E.faecalis V583, VAN,TEI/VanA): >64 µg/mL
- MIC value (S. aureus; S. aureus 73OL, MRSA): 0,5 µg/ml
- MIC value (S. aureus; S. aureus 214OL, MRSA): 2 µg/mL
- MIC value (S. aureus; S. aureus 1041OL, MRSA): 1 µg/mL
- MIC value (S. aureus; S. aureus A6918, MRSA): 1 µg/mL
- MIC value (S. aureus; S. aureus A6919, MRSA): 0,5 µg/ml
- MIC value (S. aureus; S. aureus ATCC29213, MSSA): 0,5 µg/ml
- Average MIC value (S. aureus; S. aureus CA-MRSA, 1 strain): 0.125 mg/L
- Average MIC value (S. aureus; S. aureus MRSA, 7 strains): 1.43 mg/L
- MIC value (S. aureus; S. aureus MSSA476, MSSA): 0,25 µg/ml
- Average MIC value (S. aureus; S. aureus MSSA, 4 strains): 0.375 mg/L
- MIC value (S. aureus; S. aureus Mu50, MRSA): 4 µg/mL
- MIC value (S. aureus; S. aureus N315, MRSA): 1 µg/mL
- MIC value (S. aureus; S. aureus Newman, MSSA): 0,25 µg/ml
- MIC value (S. aureus; S. aureus SA564, MSSA): 0,5 µg/ml
- MIC value (S. aureus; S. aureus USA300, CA-MRSA): 0,125 µg/ml
- Average MIC value (S. haemolyticus; S. haemolyticus mecA, 6 strains): 112 mg/L
- MIC value (S. haemolyticus; S.haemolyticus DALB_R1, mecA): 128 mg/L
- MIC value (S. haemolyticus; S.haemolyticus DALB_R2, mecA): 256 mg/L
- MIC value (S. haemolyticus; S.haemolyticus DALB_R3, mecA): 32 mg/L
- MIC value (S. haemolyticus; S.haemolyticus DALB_R4, mecA): 64 mg/L
- MIC value (S. haemolyticus; S.haemolyticus DALB_R5, mecA): 128 mg/L
- MIC value (S. haemolyticus; S.haemolyticus ORI_R1, mecA): 64 mg/L
- MIC value (S.pyogenes; S.pyogenes H232): 0,03125 µg/ml
- MIC value (S.pyogenes; S.pyogenes H550): 0,25 µg/ml
- MIC value (S.pyogenes; S.pyogenes H578): 0,25 µg/ml
- Average MIC value (E. faecium; E. faecium VAN^R,TEI^R/VanA, 8 strains): > 64 mg/L
- Average MIC value (E. faecium; E. faecium VAN^S, TEI^S, 1 strain): 0.5 mg/L
- MIC value (E. faecium; E.faecium E335, VAN,TEI,LNZ/VanA): >64 µg/mL
- MIC value (E. faecium; E.faecium E355, VAN,TEI,LNZ/VanA): >64 µg/mL
- MIC value (E. faecium; E.faecium E832, VAN,TEI,LNZ/VanA): >64 µg/mL
- MIC value (E. faecium; E.faecium E854, VAN,TEI,LNZ/VanA): >64 µg/mL
- MIC value (E. faecium; E.faecium E859, VAN,TEI,LNZ/VanA): >64 µg/mL
- MIC value (E. faecium; E.faecium E1114, VAN,TEI,LNZ/VanA): >64 µg/mL
- MIC value (E. faecium; E.faecium E1131, VAN,TEI,LNZ/VanA): >64 µg/mL
- MIC value (E. faecium; E.faecium E1132, VAN,TEI,LNZ/VanA): >64 µg/mL
- MIC value (E. faecium; E.faecium TX0016): 0,5 µg/ml
- Average MIC value (S. epidermidis; S. epidermidis mecA, 6 strains): 26.7 mg/L
- MIC value (S. epidermidis; S.epidermidis ORI_R1, mecA): 32 mg/L
- MIC value (S. epidermidis; S.epidermidis ORI_R2, mecA): 16 mg/L
- MIC value (S. epidermidis; S.epidermidis ORI_R3, mecA): 32 mg/L
- MIC value (S. epidermidis; S.epidermidis ORI_R4, mecA): 16 mg/L
- MIC value (S. epidermidis; S.epidermidis TEI_R1, mecA): 32 mg/L
- MIC value (S. epidermidis; S.epidermidis TEI_R2, mecA): 32 mg/L
- MIC [6]: 256 mg/L
- MIC [7]: 256 mg/L
- MIC [8]: 128 mg/L
- MIC [9]: 256 mg/L
- CC50 (Calu-3 cells): > 100 µM

Molecule: O=C(O)CCC(F)(F)C(F)(F)C(F)(F)C(F)(F)C(F)(F)C(F)(F)C(F)(F)C(F)(F)F [Compound 14]
- EC50 (SARS-CoV-2 [1]; Severe acute respiratory syndrome coronavirus 2, Vero C1008, 72 h): 19 ± 1.5 µM
- Reduction of the CPE of SARS-CoV-2 in VeroE6 cells (in words) (SARS-CoV-2 [1]; VeroE6 cells): did show antiviral activity
- CC50 [10]: 39 ± 1.4 µM
- Toxicity in VeroE6 cells (in words) (VeroE6 cells; VeroE6 cells): quite toxic
- Activity against SARS-CoV-2 in Calu-3 cells (in words) (SARS-CoV-2 [2]): active
- EC50 (SARS-CoV-2 [2]; Severe acute respiratory syndrome coronavirus 2, 72 h): 46 ± 1.9 µM
- EC50 (HCoV-229E; Human coronavirus 229E): 69 µM
- CC50 [11]: > 100 µM
- EC50 (SARS-CoV-2 pseudovirus [3]; [12]): 13 ± 5 µM
- Inhibition of pseudovirus entry in Vero cells (in words) (SARS-CoV-2 pseudovirus [3]): inhibited both entry routes
- Inhibition of pseudovirus entry in A549-AT cells (in words) (SARS-CoV-2 pseudovirus [4]): inhibited both entry routes
- EC50 (SARS-CoV-2 pseudovirus [4]; [12]): 24 ± 6 µM
- IC50 ([5]; pH 5.5, Z-Phe-Arg-AMC substrate, read-out: Cathepsin L IC50): > 500 µM
- inhibition at 200 µM (SARS-CoV-2 3CL^Pro): 12 ± 2%
- CC50 (in vitro): ~53 µM
